Data set [1] can be described thus: Gelation of peptides in non-aqueous polar aprotic solvents. Type of data set: physicochemical. The settings on record: formulated in non-aqueous polar aprotic solvents; no gelation even after 12 months at 37° C. As for the experimental part:
No gelation was found even after 12 months at 37° C. […] Thus, these solvents have an anti-gellant effect.

The conditions of data set [2]: aggregation, gelation and fibrillation; cited from earlier work.

For `CC(C)C[C@H](NC(=O)[C@@H](COC(C)(C)C)NC(=O)[C@H](Cc1ccc(O)cc1)NC(=O)[C@H](CO)NC(=O)[C@H](Cc1c[nH]c2ccccc12)NC(=O)[C@H](Cc1cnc[nH]1)NC(=O)[C@@H]1CCC(=O)N1)C(=O)N[C@@H](CCCNC(=N)N)C(=O)N1CCC[C@H]1C(=O)NNC(N)=O` [goserelin], in data set [1], the gelation entry is “do not gel”.

With calcitonin, the “physical stability in aqueous solution” value in data set [2] was “physically unstable”. Besides, the gelation result in data set [1] is “do not gel”.

On to `CCNC(=O)[C@@H]1CCCN1C(=O)[C@H](CCCNC(=N)N)NC(=O)[C@H](CC(C)C)NC(=O)[C@@H](CC(C)C)NC(=O)[C@H](Cc1ccc(O)cc1)NC(=O)[C@H](CO)NC(=O)[C@H](Cc1c[nH]c2ccccc12)NC(=O)[C@H](Cc1c[nH]cn1)NC(=O)[C@@H]1CCC(=O)N1` [leuprolide], for which the gelation result in data set [1] is “do not gel”.

The values are drawn from US6235712A, “Non-aqueous polar aprotic peptide formulations” (ALZA Corporation, priority 2000, dated 2001).
